Assay results taken from patent US20210277246A1, “PROBE FOR DETECTING CARBAPENEM-RESISTANT BACTERIA AND USE THEREOF” (priority 2018, published 2021).

Tests used:
[1] = test system: Citrobacter freundii (KPC); assay: MIC of carbapenems for isolates; format: cell-based; conditions: 1 isolate
Escherichia coli (KPC) = assay: MIC of carbapenems for isolates; format: cell-based; conditions: 3 isolates
[2] = test system: Klebsiella aerogenes (KPC); assay: MIC of carbapenems for isolates; format: cell-based; conditions: 1 isolate
Klebsiella oxytoca (KPC) = assay: MIC of carbapenems for isolates; format: cell-based; conditions: 1 isolate
[3] = test system: Klebsiella pneumoniae (GES); assay: MIC of carbapenems for isolates; format: cell-based; conditions: 1 isolate
[4] = test system: Citrobacter freundii (NDM); assay: MIC of carbapenems for isolates; format: cell-based; conditions: 1 isolate
[5] = test system: Enterobacter cloacae (NDM); assay: MIC of carbapenems for isolates; format: cell-based; conditions: 2 isolates
Escherichia coli (NDM) = assay: MIC of carbapenems for isolates; format: cell-based; conditions: 4 isolates
[6] = test system: Klebsiella pneumoniae (NDM); assay: MIC of carbapenems for isolates; format: cell-based; conditions: 1 isolate
[7] = test system: Morganella morganii (NDM); assay: MIC of carbapenems for isolates; format: cell-based; conditions: 1 isolate
[8] = test system: Enterobacter cloacae (VIM); assay: MIC of carbapenems for isolates; format: cell-based; conditions: 1 isolate
Klebsiella oxytoca (VIM) = assay: MIC of carbapenems for isolates; format: cell-based; conditions: 1 isolate
[9] = test system: Klebsiella pneumoniae (VIM); assay: MIC of carbapenems for isolates; format: cell-based; conditions: 1 isolate
Escherichia coli (IMP) = assay: MIC of carbapenems for isolates; format: cell-based; conditions: 1 isolate
[10] = test system: Citrobacter freundii (OXA); assay: MIC of carbapenems for isolates; format: cell-based; conditions: 1 isolate
Escherichia coli (OXA) = assay: MIC of carbapenems for isolates; format: cell-based; conditions: 3 isolates
[11] = test system: Klebsiella pneumoniae (OXA); assay: MIC of carbapenems for isolates; format: cell-based; conditions: 2 isolates
[12] = test system: Klebsiella pneumoniae (NDM/OXA); assay: MIC of carbapenems for isolates; format: cell-based; conditions: NDM/OXA co-producing, 1 isolate
[13] = test system: Citrobacter freundii (non-CP-CRE); assay: MIC of carbapenems for isolates; format: cell-based; conditions: 1 isolate
[14] = test system: Enterobacter amnigenus (non-CP-CRE); assay: MIC of carbapenems for isolates; format: cell-based; conditions: Lelliottia amnigena, 4 isolates
[15] = test system: Escherichia coli (non-CP-CRE); assay: MIC of carbapenems for isolates; format: cell-based; conditions: 8 isolates
[16] = test system: Klebsiella aerogenes (non-CP-CRE); assay: MIC of carbapenems for isolates; format: cell-based; conditions: 3 isolates
[17] = test system: Klebsiella pneumoniae (non-CP-CRE); assay: MIC of carbapenems for isolates; format: cell-based; conditions: 22 isolates
[18] = test system: Klebsiella pneumoniae (ESBL-producer, CTX-M); assay: MIC of carbapenems for isolates; format: cell-based; conditions: 24 isolates
[19] = test system: Escherichia coli (non-producer); assay: MIC of carbapenems for isolates; format: cell-based; conditions: 32 isolates
[20] = test system: Klebsiella pneumoniae (non-producer); assay: MIC of carbapenems for isolates; format: cell-based; conditions: 21 isolates
GES [21] = assay: Fluorescent probe detection in lysed clinical isolates; format: biochemical, Enterobacteriaceae; conditions: Ambler class A, 2 isolates
Description: (§1) The detection efficiency of carbapenemase-producing carbapenem-resistant bacteria of a control probe OMCL01201 (CPC-1 described in Chinese Patent Publication No. CN106279178A) and the OMCL01203 probe of the present disclosure was evaluated at Gangnam St. Mary's Hospital for the bacteria described in Table 1.
(§2) Briefly, 10 μL of a sample was lysed with a Tris-HCl buffer (B-PER, Thermo Scientific Pierce) and then vortexed for 1 minute. After culturing for 30 minutes at room temperature and centrifuging for 5 minutes (10,000 g), 30 μL of the supernatant was reacted with 100 μL of PBS and 13 μL of the fluorescent probe (1 mM). Then, fluorescence was measured for 50 minutes with 5-minute intervals using a fluorescence plate reader (Infinite F200pro, Tecan Group Ltd.).

IMP [22] = assay: as above; format: biochemical, Enterobacteriaceae; conditions: Ambler class B, 1 isolate
Description: as §1, §2

KPC/OXA [23] = assay: as above; format: biochemical, Enterobacteriaceae; conditions: KPC/OXA co-producing; 2 isolates
Description: as §1, §2

KPC [24] = assay: as above; format: biochemical, Enterobacteriaceae; conditions: Ambler class A, 33 isolates
Description: as §1, §2

NDM/OXA [25] = assay: as above; format: biochemical, Enterobacteriaceae; conditions: NDM/OXA co-producing; 1 isolate
Description: as §1, §2

NDM [26] = assay: as above; format: biochemical, Enterobacteriaceae; conditions: Ambler class B, 9 isolates
Description: as §1, §2

OXA [27] = assay: as above; format: biochemical, Enterobacteriaceae; conditions: Ambler class D, 6 isolates
Description: as §1, §2

VIM [28] = assay: as above; format: biochemical, Enterobacteriaceae; conditions: Ambler class B, 7 isolates
Description: as §1, §2

[29] = test system: CPE (carbapenemase-producing Enterobacteriaceae); assay: as above; format: biochemical; conditions: CPE total; 61 isolates
Description: as §1, §2

Non-CP CRE = assay: as above; format: biochemical
Description: as §1, §2

CTX-M (ESBL-producer) = assay: Fluorogenic assay (OMCL01203 probe); format: biochemical; parameters: key: Pos, positive; Neg, negative
Description: as §2
(§3) In addition, the detection efficiency of the fluorescence detection method using the OMCL01203 probe was compared for carbapenemase-producing carbapenem-resistant bacteria (CP-CRE) and non-carbapenemase-producing carbapenem-resistant bacteria (non-CP-CRE) with mCIM, CarbaNP and CIT methods.

GES [30] = assay: Fluorogenic assay (OMCL01203 probe); format: biochemical; parameters: key: Pos, positive; Neg, negative; conditions: Escherichia coli, 2 isolates
Description: as §2, §3

IMP [31] = assay: Fluorogenic assay (OMCL01203 probe); format: biochemical; parameters: key: Pos, positive; Neg, negative; conditions: Escherichia coli, 1 isolate
Description: as §2, §3

KPC/OXA [32] = assay: Fluorogenic assay (OMCL01203 probe); format: biochemical; parameters: key: Pos, positive; Neg, negative; conditions: KPC/OXA co-producing; Klebsiella pneumoniae; 2 isolates
Description: as §2, §3

KPC [33] = assay: Fluorogenic assay (OMCL01203 probe); format: biochemical; parameters: key: Pos, positive; Neg, negative
Description: as §2, §3

NDM/OXA [34] = assay: Fluorogenic assay (OMCL01203 probe); format: biochemical; parameters: key: Pos, positive; Neg, negative; conditions: NDM/OXA co-producing; Klebsiella pneumoniae; 1 isolate
Description: as §2, §3

NDM [35] = assay: Fluorogenic assay (OMCL01203 probe); format: biochemical; parameters: key: Pos, positive; Neg, negative
Description: as §2, §3

OXA [36] = assay: Fluorogenic assay (OMCL01203 probe); format: biochemical; parameters: key: Pos, positive; Neg, negative
Description: as §2, §3

VIM [37] = assay: Fluorogenic assay (OMCL01203 probe); format: biochemical; parameters: key: Pos, positive; Neg, negative
Description: as §2, §3

non-CP-CRE = assay: Fluorogenic assay (OMCL01203 probe); format: biochemical; parameters: key: Pos, positive; Neg, negative
Description: as §2, §3

non-producer = assay: Fluorogenic assay (OMCL01203 probe); format: biochemical; parameters: key: Pos, positive; Neg, negative
Description: as §2, §3

GES [38] = assay: Fluorogenic assay (OMCL01203 probe); format: biochemical; conditions: Klebsiella pneumoniae, 1 isolate
Description: as §2, §3

OXA [39] = assay: Fluorogenic assay (OMCL01203 probe); format: biochemical; conditions: Escherichia coli, 3 isolates, number of isolates in brackets
Description: as §2, §3

[40] = test system: non-CPE (negative bacteria); assay: Fluorogenic assay (OMCL01203 probe), all non-CPE of Table 2; format: biochemical
Description: as §2, §3

[41] = Citrobacter freundii, 1 isolate
[42] = Klebsiella pneumoniae, 1 isolate

## C[C@@H](O)[C@H]1C(=O)N2C(C(=O)O)=C(S[C@@H]3CN[C@H](C(=O)N(C)C)C3)[C@H](C)[C@H]12 [MEM, meropenem]
[1]
  MIC: 8 mg/L
Escherichia coli (KPC)
  MIC: 4 mg/L
[2]
  MIC: 16 mg/L
Klebsiella oxytoca (KPC)
  MIC: > 16 mg/L
[3]
  MIC: > 16 mg/L
[4]
  MIC: 16 mg/L
[5]
  MIC: > 16 mg/L
Escherichia coli (NDM)
  MIC: > 16 mg/L
[6]
  MIC: > 16 mg/L
[7]
  MIC: 4 mg/L
[8]
  MIC: 2 mg/L
Klebsiella oxytoca (VIM)
  MIC: 1 mg/L
[9]
  MIC: > 16 mg/L
Escherichia coli (IMP)
  MIC: 1 mg/L
[10]
  MIC: 0.5 mg/L
Escherichia coli (OXA)
  MIC: 0.25 to 4 mg/L
[11]
  MIC: 0.5 to 16 mg/L
[12]
  MIC: 4 mg/L
[13]
  MIC: 0.5 mg/L
[14]
  MIC: 2 to 8 mg/L
[15]
  MIC: 0.25 to 8 mg/L
[16]
  MIC: 0.5 to 16 mg/L
[17]
  MIC: 0.5 to 8 mg/L
[18]
  MIC: ≤ 0.25 mg/L
[19]
  MIC: ≤ 0.25 mg/L
[20]
  MIC: ≤ 0.25 mg/L

## C[C@@H](O)[C@H]1C(=O)N2C(C(=O)O)=C(COc3ccc(COc4ccc5ccc(=O)oc5c4)cc3)[C@H](C)[C@H]12 [OMCL01203]
GES [21]
  Pos. %: 100%
  result(s) (isolates determined positive): 2
IMP [22]
  Pos. %: 100%
  result(s) (isolates determined positive): 1
KPC/OXA [23]
  Pos. %: 100%
  result(s) (isolates determined positive): 2
KPC [24]
  Pos. %: 100%
  result(s) (isolates determined positive): 33
NDM/OXA [25]
  Pos. %: 100%
  result(s) (isolates determined positive): 1
NDM [26]
  Pos. %: 89%
  result(s) (isolates determined positive): 8
OXA [27]
  Pos. %: 83%
  result(s) (isolates determined positive): 5
VIM [28]
  Pos. %: 100%
  result(s) (isolates determined positive): 7
[29]
  Pos. %: 97%
  result(s) (isolates determined positive): 59
Non-CP CRE; Non-CP CRE, 40 isolates
  Pos. %: 0%
  result(s) (isolates determined positive): 0
Non-CP CRE; all 40 non-CPE species
  determination of non-CPE species: negative
CTX-M (ESBL-producer); Escherichia coli, 29 isolates
  Fluore result: Neg
CTX-M (ESBL-producer); Klebsiella pneumoniae, 24 isolates
  Fluore result: Neg
GES [30]
  Fluore result: Pos
IMP [31]
  Fluore result: Pos
KPC/OXA [32]
  Fluore result: Pos
KPC [33]; [41]
  Fluore result: Pos
KPC [33]; Escherichia coli, 3 isolates
  Fluore result: Pos
KPC [33]; Klebsiella aerogenes, 1 isolate
  Fluore result: Pos
KPC [33]; Klebsiella oxytoca, 1 isolate
  Fluore result: Pos
KPC [33]; Klebsiella pneumoniae, 30 isolates
  Fluore result: Pos
NDM/OXA [34]
  Fluore result: Pos
NDM [35]; [41]
  Fluore result: Pos
NDM [35]; Enterobacter cloacae, 2 isolates
  Fluore result: Pos
NDM [35]; Escherichia coli, 4 isolates
  Fluore result: Pos
NDM [35]; [42]
  Fluore result: Pos
NDM [35]; Morganella morganii, 1 isolate
  Fluore result: Pos
OXA [36]; [41]
  Fluore result: Pos
OXA [36]; Klebsiella pneumoniae, 2 isolates
  Fluore result: Pos
VIM [37]; Citrobacter freundii, 4 isolates
  Fluore result: Pos
VIM [37]; Enterobacter cloacae, 1 isolate
  Fluore result: Pos
VIM [37]; Klebsiella oxytoca, 1 isolate
  Fluore result: Pos
VIM [37]; [42]
  Fluore result: Pos
non-CP-CRE; [41]
  Fluore result: Neg
non-CP-CRE; Enterobacter amnigenus, 4 isolates
  Fluore result: Neg
non-CP-CRE; Enterobacter cloacae, 10 isolates
  Fluore result: Neg
non-CP-CRE; Escherichia coli, 8 isolates
  Fluore result: Neg
non-CP-CRE; Klebsiella aerogenes, 3 isolates
  Fluore result: Neg
non-CP-CRE; Klebsiella pneumoniae, 22 isolates
  Fluore result: Neg
non-producer; Escherichia coli, 32 isolates
  Fluore result: Neg
non-producer; Klebsiella pneumoniae, 21 isolates
  Fluore result: Neg
GES [38]
  Fluore result: Neg(1)
OXA [39]; isolates testing negative
  Fluore result: Neg(2)
OXA [39]; isolates testing positive
  Fluore result: Pos(1);
[40]
  determination of negative bacteria: negative
